Values joined by “and” are separate entries in the source; they are usually repeats but may differ in a detail not shown here. Equal values may be shown once.
Legend:
[1] = tested on: Lactobacillus fermentum (ATCC 14931); assay: Glucose Uptake Index (GUI) of Lactobacillus fermentum culture with 5% v/v ionic liquid; assay type: cell-based; conditions: MRS medium, 16 hours, 30° C., paired control GUI 99.8, 26.5 or 94.6
[2] = tested on: Lactobacillus zeae (ATCC 15820); assay: Glucose Uptake Index (GUI) of Lactobacillus zeae culture with 5% v/v ionic liquid
Procedure: This media was made per bottle instructions using sterilized water, and was then again filter sterilized before use. The test tubes were incubated at 30° C. at 175 rpm in an Inova Incubator (Karlsbad, Sweden). After 24 hours, the test tubes were removed and stored at 4° C.
A portion (50 μL) of each stock culture prepared as above was inoculated into separate 15 mL sterile polypropylene culture tubes containing fresh MRS medium (3 mL). These tubes were incubated for four hours at 30° C. at 175 rpm. After four hours, one of these culture tubes was inoculated with 150 μL (5% v/v) of each of the ionic liquids as listed in Table 1 below. […] Each tube that was inoculated with an ionic liquid was also paired with a tube that received no ionic liquid and was used as a control.
All culture tubes were then incubated again under the same conditions for another 16 hours. After 16 hours, the culture tubes were stored at −80° C. Analytical samples were taken from each culture tube by thawing the samples and spinning them at 28,000 rpm and 20° C. for ten minutes in a Sorvall Instruments RC3C (Newtown Conn.) centrifuge. One milliliter of supernatant was removed from each tube and was subjected to high performance liquid chromatography (HPLC) analysis using an Agilent (Palo Alto Calif.) HPLC 1100 with a BioRad Aminex 87-H using 0.008 N sulfuric acid with both diode array and refractive index detection, and an Agilent HPLC 1100 with a Shodex OH-pak column using 0.01 N sulfuric acid. Data analysis was performed using the Agilent Chemstation software and Microsoft Excel.
The glucose uptake index was calculated by taking the total glucose consumed in a fermentation sample, whether or not the sample contained an ionic liquid, and dividing it by the total initial glucose present in the broth at the start of fermentation.

[3] = Extraction of isobutanol from an aqueous solution by ionic liquid, HPLC; assay type: physicochemical; conditions: concentration in aqueous solution after overnight equilibration with 5 vol % ionic liquid; control 416 mM
Procedure: (§1) Ethanol and isobutanol concentration in the solution was measured using HPLC as described above following thorough mixing and overnight equilibration of the contents of the vial.

[4] = Extraction of ethanol from an aqueous solution by ionic liquid, HPLC; assay type: physicochemical; conditions: concentration in aqueous solution after overnight equilibration with 5 vol % ionic liquid; control 684 mM
Procedure: as §1

| Compound | GUI of Sample (Glucose Utilization Index in the presence of 5% (v/v) of the ionic liquid phase) [1] | GUI of Sample (Glucose Utilization Index in the presence of 5% (v/v) of the ionic liquid phase) [2] | Isobutanol [3] [mM] | Ethanol [4] [mM] |
| --- | --- | --- | --- | --- |
| 1-butyl-3-methylimidazolium 2-(1,2,2,2-tetrafluoroethoxy)-1,1,2,2-tetrafluoroethanesulfonate [[BMIM] [FS]] | 24.0 | – | – | – |
| 3-methyl-1-propylpyridinium bis(trifluoromethylsulfonyl)imide [[PMPy] [Tf2N]] | 26.1 | 63.5 | – | – |
| 1-ethyl-3-methylimidazolium bis(trifluoromethylsulfonyl)imide [[EMIM] [Tf2N]] | 54.5 | 51.2 | 389 | 670 |
| 1-hexyl-3-methylimidazolium bis(trifluoromethylsulfonyl)imide [[HMIM] [Tf2N]] | 19.5 | 66.2 | 388 | 678 |
| CCCCn1cc[n+](C)c1.F[B-](F)(F)F [[BMIM] [BF4], 1-butyl-3-methylimidazolium tetrafluoroborate] | 9.74 | – | – | – |
| 1-butyl-3-methylpyrrolidinium bis(trifluoromethylsulfonyl)imide [[BMP] [Tf2N]] | 0.96 | 49.8 | 391 | 676 |
| 1-butyl-3-methylimidazolium 1,1,2-trifluoro-2-(trifluoromethoxy)ethanesulfonate [[BMIM] [TTES]] | 16.2 | – | – | – |
| 1-butyl-3-methylimidazolium bis(trifluoromethylsulfonyl)imide [[BMIM] [Tf2N]] | 26.8 | – | – | – |
| CCCCn1cc[n+](C)c1.F[P-](F)(F)(F)(F)F [[BMIM] [PF6], 1-butyl-3-methylimidazolium hexafluorophosphate] | 88.3 | – | – | – |
| 1-butyl-3-methylimidazolium 1,1,2-trifluoro-2-(perfluoroethoxy)ethanesulfonate [[BMIM] [TPES]] | 7.21 | – | – | – |
| 1-ethyl-3-methylimidazolium bis(pentafluoroethylsulfonyl)imide [[EMIM] [BEI]] | 25.5 | 36.0 | – | – |
| tetradecyl(tri-n-hexyl)phosphonium 1,1,2-trifluoro-2-(perfluoroethoxy)ethanesulfonate [[6,6,6,14-P] [TPES]] | 92.8 | 62.8 | – | – |
| CCCCCCn1cc[n+](C)c1.FC(F)(F)C(F)(F)[P-](F)(F)(F)(C(F)(F)C(F)(F)F)C(F)(F)C(F)(F)F [[HMIM] [FAP], 1-hexyl-3-methylimidazolium tris(pentafluoroethyl)trifluorophosphate] | 84.7 | – | 404 | 680 |
| 1-butyl-3-methylimidazolium 1,1,2,3,3,3-hexafluoropropanesulfonate [[BMIM] [HFPS]] | 8.0 and 11.5 | – | – | – |

From patent US20100139154A1, “PROCESS FOR FERMENTIVE PREPARATION OF ALCOHOLS AND RECOVERY OF PRODUCT” (E.I. DU PONT DE NEMOURS AND COMPANY, priority 2008, published 2010)
